Assay results taken from patent EP0235408B1, “Pharmaceutical composition and treatment” (THE UNIVERSITY OF TORONTO I[…], priority 1986, dated 1987).
“And” between values parts separate entries of the source, which are not always exact repeats. Identical values can stand only once. Counter-ions that a name gives are not always drawn. Marks after values point to notes of the source that are not given here.

What was measured:
laboratory rats [1] = assay: Drug-induced sleep tracked by electroencephalograph (Example 4); type: in vivo; settings: for induced sleep (duration): 500 mg per kilogram, EEG
Procedure: The preferred compound according to the invention was administered to labotatory rats, and the sleep of the animals induced by the drug was tracked by means of an electroencephalograph.
Compound ethyl 4-acetoxybutanoate, administered by mouth at a dosage of 250 mg per kilogram body weight induced sleep for 1 hour 28 minutes. At a dosage of 500 mg per kilogram administered in one case by mouth and in another case intraperitoneally, sleep was induced for 4 hours.
The administration to a similar laboratory rat, intraperitoneally, of a dosage of 500 mg per kilogram body weight of GHB induced sleep for only 1 hour 59 minutes, by contrast.

[2] = Toxicity in animal models; settings: rat, in vivo; laboratory rats; read-out: dose required before a toxic level is reached
Procedure: In tests conducted in animal models, the compound ethyl 4-acetoxybutanoate has evidenced extremely low levels of toxicity. In tests conducted with laboratory rats as reported below, doses as high as 3000 mg per kilogram body weight are required, before a toxic level is reached.

rats = assay: Effects on sleep and righting time, intraperitoneal administration (Example 6); settings: 5 mM/kg body weight; for TIME SLEPT (mins) AVG 1: average based only on the animals which slept; for TIME SLEPT (mins): individual animals, asterisk = animal could be placed on its back for the time indicated, DNS = did not sleep
laboratory rats [3] = assay: Effects on sleep and righting time, oral administration (Example 5); type: in vivo; settings: 10 mM/kg body weight; for TIME SLEPT (mins) AVG 1: average based only on the animals which slept
Procedure: The effects on sleep and- righting time of the oral and in traperitoneal administration of the prior art compound hydroxybutyrate sodium salt (GHB) and 4-acetoxybutanoate (EAB) according to the invention were determined, using groups of labotatory rats.
In a first experiment, GHB was administered at high dosage level (25 mM/Kg or 3 g/kg body weight) orally to three animals. […] The most likely reason is that oral GHB is poorly absorbed.
In a second experiment each of GHB and EAB was given to separate groups of twelve and eleven animals respectively, by oral administration at the same, lower dosage level of 10 mM/kg body weight.

[4] = 250 or 500 mg per kilogram, by mouth or intraperitoneally
[5] = individual animals, asterisk = animal could be placed on its back for the time indicated, DNS = did not sleep
[6] = average of all the rats, whether they slept or not

CCOC(=O)CCCOC(C)=O [EAB, ethyl 4-acetoxybutanoate]
ill effects upon waking (laboratory rats [1]; [4]): none of the animals exhibited ill effects | muscle relaxation during sleep (laboratory rats [1]; [4]): the limbs and other body joints were quite flaccid | induced sleep (duration) (laboratory rats [1]; by mouth): 4 h | induced sleep (duration) (laboratory rats [1]; intraperitoneally): 4 h | NOAEL [2]: ≥ 3000 mg/kg | TIME SLEPT (mins) RANGE (rats): 39.30 to 259.00 min | ill effects upon waking (rats): none of them showed any ill effects | muscle relaxation during sleep (rats): exhibited a high degree of muscle relaxation | TIME SLEPT (mins) AVG 1 (rats): 126.89 min | TIME SLEPT (mins) (rats): 51.70* mins and 39.30* mins and 199.65* mins and 141.70* mins and 70.00* mins and 259.00* mins | TIME SLEPT (mins) RANGE (laboratory rats [3]): 103.9 to 331.6 min | animals put to sleep (laboratory rats [3]): put all rats to sleep | animals that could be placed on their backs (laboratory rats [3]): four of eleven could be placed on their backs for more than five hours | ill effects upon waking (laboratory rats [3]): none of the animals exhibited any ill effects | muscle relaxation during sleep (laboratory rats [3]): loose and flaccid | sign of toxicity (laboratory rats [3]): No sign of toxicity was observed | TIME SLEPT (mins) AVG 1 (laboratory rats [3]): 170.57 min | TIME SLEPT (laboratory rats [3]; [5]): 103.90 min and 120.30 min and 106.10 min and 125.75 min and 143.45 min and 120.00 min and 175.80 min | TIME SLEPT (mins) (laboratory rats [3]; [5]): 331.60* mins and 311.50* mins and 317.65* mins and 300.20* mins

O=C(O)CCCO [GHB, hydroxybutyrate sodium salt, reference compound]
TIME SLEPT (mins) RANGE (rats): 0 to 87.35 min | TIME SLEPT (mins) AVG 1 (rats): 72.04 min | TIME SLEPT (mins) AVG 2 (rats; [6]): 48.03 min | TIME SLEPT (mins) (rats; sodium salt): 70.20* mins and 55.40* mins and 75.20* mins and 87.35* mins | TIME SLEPT (mins) RANGE (laboratory rats [3]): 0 to 74.7 min | TIME SLEPT (mins) AVG 1 (laboratory rats [3]): 65.76 min | TIME SLEPT (mins) AVG 2 (laboratory rats [3]; [6]): 27.40 min | TIME SLEPT (laboratory rats [3]; individual animals, asterisk = animal could be placed on its back for the time indicated, DNS = did not sleep, sodium salt): 72.80 min and 64.70 min and 60.80 min and 55.80 min and 74.70 min
